Reference: patent US20200405794A1, “PHARMACEUTICAL COMPOSITION FOR PREVENTING OR TREATING CANCER […] AND H[…] EFFECTIVE COMPONENTS” (priority 2018, published 2020)

Key:
[1] = tested on: HCT-116 cancer cell line-implanted mice; experiment: Tumor size in human colorectal cancer cell (HCT-116)-implanted mice; type: in vivo, Balb/c nu/nu mice; details: day 28; hydroxyurea only, once daily; n=5
[2] = tested on: 4T1 cancer cell line-implanted mice; experiment: 4T1 I: tumor size in mouse breast cancer cell-implanted mice; type: in vivo, Balb/c mice; details: 10 days; OTS-412 1×10^7 pfu intratumorally once; hydroxyurea 30 mg/kg intraperitoneally once a day; n=4
[3] = tested on: NCI-H460 lung cancer cells-implanted mice; experiment: Tumor size in human lung cancer cell (NCI-H460)-implanted mice; type: in vivo, Balb/c nu/nu mice; details: day 15; OTS-412 1×10^5 pfu twice (5 days apart); hydroxyurea 20 mg/kg once daily
[4] = day 21; OTS-412 1×10^7 pfu twice or hydroxyurea 30 mg/kg, each alone; n=10
[5] = tested on: 4T1 cancer cell line-implanted mice; experiment: 4T1 III: tumor size and survival with high-dose hydroxyurea; type: in vivo, Balb/c mice; details: 17 days; OTS-412 1×10^7 pfu intratumorally once; high-dose hydroxyurea 90 mg/kg intraperitoneally once a day

In the case of hydroxyurea, the tumor size increase [1] is reported as 11 times, the tumor size increase [2] is reported as ~5 times and the tumor size increase [3] is reported as 9 times. The body weight loss [4] was “around 10%” and the tumor size increase [5] was ~3.5 times.
